Measurements reported in patent US12098145B2 (Libra Therapeutics, Inc., priority 2022, dated 2024).
Where two headings read alike, the source gives them in different places.

Tests used:
TRPML1 = molecular target: T1, TRPML1 (Homo sapiens, UniProt Q9GZU1); assay: Cellular TRPML1 assay (FLIPR, GCaMP6f calcium read-out); assay type: cell-based
T1 construct: expressed in transfected cells; host or cells: HEK T-REx cells stably expressing GCaMP6f and TRPML1
Summary of the method: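 Read-out is GCaMP6f fluorescence over 300 s after compound addition in Ca2+-free Tyrode's buffer, final DMSO 0.5%, on FLIPR Tetra. Cells are HEK T-REx stably co-expressing the indicator and TRPML1, plated 24 h earlier in Optimem + 0.5% FBS and pre-incubated ~10 min at room temperature.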

TFEB = TFEB translocation assay (TFEB reporter in U2OS cells, imaging); assay type: cell-based; details: Homo sapiens; U2OS cell line with TFEB reporter, 2 hours incubation, nucleus to cytoplasm ratio, normalized to Torin-1; read-out: TFEB Translocation pEC50 (converted)
Summary of the method: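 Activity expresses the mean nuclear-to-cytosolic reporter ratio scaled between DMSO (0%) and Torin-1 (100%) controls. Read-out came from high-content imaging of fixed, Hoechst-counterstained U2OS cells carrying mRFP-tagged TFEB after 2 h compound exposure at 37 °C in Opti-MEM with 0.015% Tween 80 and 0.5% DMSO.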

[1] = HEKT-REx/GCaMP6f/TRPML1 cells, FLIPR TETRA, kinetic response over 300 seconds, read-out: TRPML1 FLIPR pEC50 (converted)

T1 sequence (Q9GZU1 whole entry): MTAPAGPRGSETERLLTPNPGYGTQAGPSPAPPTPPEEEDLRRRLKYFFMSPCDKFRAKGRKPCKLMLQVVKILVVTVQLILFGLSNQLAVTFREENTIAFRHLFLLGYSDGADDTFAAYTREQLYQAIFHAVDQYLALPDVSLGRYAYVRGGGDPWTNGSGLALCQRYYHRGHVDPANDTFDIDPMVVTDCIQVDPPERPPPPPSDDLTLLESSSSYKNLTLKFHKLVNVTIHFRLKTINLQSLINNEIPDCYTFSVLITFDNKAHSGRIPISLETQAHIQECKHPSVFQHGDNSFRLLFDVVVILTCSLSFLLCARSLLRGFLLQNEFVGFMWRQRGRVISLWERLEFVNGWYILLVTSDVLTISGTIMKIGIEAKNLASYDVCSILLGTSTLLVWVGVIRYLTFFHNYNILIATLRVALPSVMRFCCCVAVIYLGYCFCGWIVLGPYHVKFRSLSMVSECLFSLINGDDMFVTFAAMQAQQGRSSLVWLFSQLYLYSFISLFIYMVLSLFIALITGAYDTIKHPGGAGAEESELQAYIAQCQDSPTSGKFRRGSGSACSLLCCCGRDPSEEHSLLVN

| SMILES | EC50 (TRPML1; [1]) [nM] | EC50 (TFEB) [nM] | EC50 (TRPML1) [nM] |
| --- | --- | --- | --- |
| CCC1(CC)CN(c2nc(C(=O)Nc3cc(O)c(OC4CC5CC(C5)C4)c(F)c3)c(CC(F)(F)F)o2)C1 (stereo not shown) [Example 264, N-(4-(bicyclo[3.1.1]heptan-3-yloxy)-3-fluoro-5-hydroxyphenyl)-2-(3,3-diethylazetidin-1-yl)-5-(2,2,2-trifluoroethyl)oxazole-4-carboxamide] | 10 to 1000 | 10 to 1000 |  |
| CCC1(CC)CN(c2nc(C(=O)Nc3cc(O)c(O[C@@H]4C[C@@H]5C[C@@H]5C4)c(F)c3)c(CC(F)(F)F)o2)C1 [Example 269, N-(4-(cis-bicyclo[3.1.0]hexan-3-yloxy)-3-fluoro-5-hydroxyphenyl)-2-(3,3-diethylazetidin-1-yl)-5-(2,2,2-trifluoroethyl)oxazole-4-carboxamide] | 10 to 1000 | 10 to 1000 |  |
| COC1(C)CN(c2nc(C(=O)Nc3cc(O)c(N4C5CCCC4CC5)c(F)c3)c(CC(F)(F)F)o2)C1 [Example 272, N-(4-(8-azabicyclo[3.2.1]octan-8-yl)-3-fluoro-5-hydroxyphenyl)-2-(3-methoxy-3-methylazetidin-1-yl)-5-(2,2,2-trifluoroethyl)oxazole-4-carboxamide] |  | 10 to 1000 | 10 to 1000 |
| CCCc1oc(N2CCC3CCCC32)nc1C(=O)Nc1cc(F)c(OC2CC3C[C@H]3C2)c(F)c1 (stereo partly drawn) [Example 275, N-(4-(cis-bicyclo[3.1.0]hexan-3-yloxy)-3,5-difluorophenyl)-2-(hexahydrocyclopenta[b]pyrrol-1(2H)-yl)-5-propyloxazole-4-carboxamide] | 10 to 1000 | 10 to 1000 |  |
| COC1(C)CN(c2nc(C(=O)Nc3cc(F)c(O[C@@H]4C[C@@H]5C[C@@H]5C4)c(F)c3)c(CCF)o2)C1 [Example 276, N-(4-(cis-bicyclo[3.1.0]hexan-3-yloxy)-3,5-difluorophenyl)-5-(2-fluoroethyl)-2-(3-methoxy-3-methylazetidin-1-yl)oxazole-4-carboxamide] | 10 to 1000 | 10 to 1000 |  |
| CCC1(OC)CN(c2nc(C(=O)Nc3cc(C)c(OC4CC5CC(C5)C4)c(F)c3)c(CCF)o2)C1 (stereo not shown) [Example 277, N-(4-(bicyclo[3.1.1]heptan-3-yloxy)-3-fluoro-5-methylphenyl)-2-(3-ethyl-3-methoxyazetidin-1-yl)-5-(2-fluoroethyl)oxazole-4-carboxamide] | 10 to 1000 | 10 to 1000 |  |
| Cc1cc(NC(=O)c2nc(N3CCCC3)oc2CCF)cc(F)c1OC1CC2CC(C2)C1 (stereo not shown) [Example 278, N-(4-(bicyclo[3.1.1]heptan-3-yloxy)-3-fluoro-5-methylphenyl)-5-(2-fluoroethyl)-2-(pyrrolidin-1-yl)oxazole-4-carboxamide] | 10 to 1000 | 10 to 1000 |  |
| O=C(Nc1cc(F)c(OC2CC3CC(C3)C2)c(F)c1)c1nc(N2CCCC2)oc1CCF (stereo not shown) [Example 279, N-(4-(bicyclo[3.1.1]heptan-3-yloxy)-3,5-difluorophenyl)-5-(2-fluoroethyl)-2-(pyrrolidin-1-yl)oxazole-4-carboxamide] | 10 to 1000 | 10 to 1000 |  |
| COC1(C)CN(c2nc(C(=O)Nc3cc(C)c(O[C@@H]4C[C@@H]5C[C@@H]5C4)c(F)c3)c(CCF)o2)C1 [Example 280, N-(4-(cis-bicyclo[3.1.0]hexan-3-yloxy)-3-fluoro-5-methylphenyl)-5-(2-fluoroethyl)-2-(3-methoxy-3-methylazetidin-1-yl)oxazole-4-carboxamide] | 10 to 1000 | 10 to 1000 |  |
| COC1(C)CN(c2nc(C(=O)Nc3cc(C)c(OC4CC5CC(C5)C4)c(F)c3)c(CCF)o2)C1 (stereo not shown) [Example 281, N-(4-(bicyclo[3.1.1]heptan-3-yloxy)-3-fluoro-5-methylphenyl)-5-(2-fluoroethyl)-2-(3-methoxy-3-methylazetidin-1-yl)oxazole-4-carboxamide] | 10 to 1000 | 10 to 1000 |  |
| CCC1(CC)CN(c2nc(C(=O)Nc3cc(C)c(OC4CC5CC(C5)C4)c(F)c3)c(CCF)o2)C1 (stereo not shown) [Example 282, N-(4-(bicyclo[3.1.1]heptan-3-yloxy)-3-fluoro-5-methylphenyl)-2-(3,3-diethylazetidin-1-yl)-5-(2-fluoroethyl)oxazole-4-carboxamide] | 10 to 1000 | 10 to 1000 |  |
| CCC1(CC)CN(c2nc(C(=O)Nc3ccc(OC4CC5CC(C5)C4)c(F)c3)c(CCF)o2)C1 (stereo not shown) [Example 283, N-(4-(bicyclo[3.1.1]heptan-3-yloxy)-3-fluorophenyl)-2-(3,3-diethylazetidin-1-yl)-5-(2-fluoroethyl)oxazole-4-carboxamide] | 10 to 1000 | 10 to 1000 |  |
| O=C(Nc1cc(F)c(OC2CC3CC(C3)C2)c(F)c1)c1nc(N2CCC3(CC3)C2)oc1CCF (stereo not shown) [Example 284, N-(4-(bicyclo[3.1.1]heptan-3-yloxy)-3,5-difluorophenyl)-5-(2-fluoroethyl)-2-(5-azaspiro[2.4]heptan-5-yl)oxazole-4-carboxamide] | 10 to 1000 | 10 to 1000 |  |
| CCC1(CC)CN(c2nc(C(=O)Nc3cc(C)c(O[C@@H]4C[C@@H]5C[C@@H]5C4)c(F)c3)c(CCF)o2)C1 [Example 285, N-(4-(cis-bicyclo[3.1.0]hexan-3-yloxy)-3-fluoro-5-methylphenyl)-2-(3,3-diethylazetidin-1-yl)-5-(2-fluoroethyl)oxazole-4-carboxamide] | 10 to 1000 | 10 to 1000 |  |
| CCC1(CC)CN(c2nc(C(=O)Nc3cc(F)c(OC4CC5CC(C5)C4)c(F)c3)c(CCF)o2)C1 (stereo not shown) [Example 286, N-(4-(bicyclo[3.1.1]heptan-3-yloxy)-3,5-difluorophenyl)-2-(3,3-diethylazetidin-1-yl)-5-(2-fluoroethyl)oxazole-4-carboxamide] | 10 to 1000 | 10 to 1000 |  |
| CCC1(CC)CN(c2nc(C(=O)Nc3cc(F)c(O[C@@H]4C[C@@H]5C[C@@H]5C4)c(F)c3)c(CCF)o2)C1 [Example 287, N-(4-(cis-bicyclo[3.1.0]hexan-3-yloxy)-3,5-difluorophenyl)-2-(3,3-diethylazetidin-1-yl)-5-(2-fluoroethyl)oxazole-4-carboxamide] | 10 to 1000 | 10 to 1000 |  |
| O=C(Nc1cc(F)c(O[C@@H]2C[C@@H]3C[C@@H]3C2)c(F)c1)c1nc(N2CCC3(CC3)C2)oc1CCF [Example 288, N-(4-(cis-bicyclo[3.1.0]hexan-3-yloxy)-3,5-difluorophenyl)-5-(2-fluoroethyl)-2-(5-azaspiro[2.4]heptan-5-yl)oxazole-4-carboxamide] | 10 to 1000 | 10 to 1000 |  |
| CCC1(CC)CN(c2nc(C(=O)Nc3cc(C)c(N4C5CCCC4CC5)c(F)c3)c(CCF)o2)C1 [Example 289, N-(4-(8-azabicyclo[3.2.1]octan-8-yl)-3-fluoro-5-methylphenyl)-2-(3,3-diethylazetidin-1-yl)-5-(2-fluoroethyl)oxazole-4-carboxamide] |  | 10 to 1000 | 10 to 1000 |
| COC1(C)CN(c2nc(C(=O)Nc3cc(C)c(N4C5CCCC4CC5)c(F)c3)c(CCF)o2)C1 [Example 290] |  | 10 to 1000 | 10 to 1000 |
| CCC1(CC)CN(c2nc(C(=O)Nc3cc(C)c(O[C@@H]4C[C@@H]5C[C@@H]5C4)c(F)c3)c(COC)o2)C1 [Example 293, N-(4-(cis-bicyclo[3.1.0]hexan-3-yloxy)-3-fluoro-5-methylphenyl)-2-(3,3-diethylazetidin-1-yl)-5-(methoxymethyl)oxazole-4-carboxamide] | 10 to 1000 | 10 to 1000 |  |
